Data reported in the supplement of paper PMC11451515.

Tested on: NOMO1
Assay: cell viability relative to DMSO control; higher = less cytotoxic
Conditions: 48 h
How it was run: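 Viability values are per-plate percentages of DMSO wells, with background from cell-free wells. Library compounds in DMSO were pin-dosed, in an 11-point threefold series from 47 μM to 0.79 nM, onto NOMO1 or SEM (500 cells/well) or P12-Ichikawa (1000 cells/well) leukemia cells in 1536-well plates (5 μl). Those cells had been adapted for at least four passages in each medium, and CellTiter-Glo One luminescence was read after 48 h at 37°C.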

[1] = RPMI 5 mM glucose + 10% dialyzed FBS, 0.000781 µM
[2] = RPMI 5 mM glucose + 10% dialyzed FBS, 0.00234 µM
[3] = RPMI 5 mM glucose + 10% dialyzed FBS, 0.00702 µM
[4] = RPMI 5 mM glucose + 10% dialyzed FBS, 0.0211 µM
[5] = RPMI 5 mM glucose + 10% dialyzed FBS, 0.0632 µM
[6] = RPMI 5 mM glucose + 10% dialyzed FBS, 0.19 µM
[7] = RPMI 5 mM glucose + 10% dialyzed FBS, 0.569 µM
[8] = RPMI 5 mM glucose + 10% dialyzed FBS, 1.71 µM
[9] = RPMI 5 mM glucose + 10% dialyzed FBS, 5.12 µM
[10] = RPMI 5 mM glucose + 10% dialyzed FBS, 15.4 µM
[11] = RPMI 5 mM glucose + 10% dialyzed FBS, 46.1 µM
[12] = HPLM + 10% dialyzed FBS, 0.000781 µM
[13] = HPLM + 10% dialyzed FBS, 0.00234 µM
[14] = HPLM + 10% dialyzed FBS, 0.00702 µM
[15] = HPLM + 10% dialyzed FBS, 0.0211 µM
[16] = HPLM + 10% dialyzed FBS, 0.0632 µM
[17] = HPLM + 10% dialyzed FBS, 0.19 µM
[18] = HPLM + 10% dialyzed FBS, 0.569 µM
[19] = HPLM + 10% dialyzed FBS, 1.71 µM
[20] = HPLM + 10% dialyzed FBS, 5.12 µM
[21] = HPLM + 10% dialyzed FBS, 15.4 µM
[22] = HPLM + 10% dialyzed FBS, 46.1 µM
[23] = RPMI 5 mM glucose + 10% FBS, 0.000781 µM
[24] = RPMI 5 mM glucose + 10% FBS, 0.00234 µM
[25] = RPMI 5 mM glucose + 10% FBS, 0.00702 µM
[26] = RPMI 5 mM glucose + 10% FBS, 0.0211 µM
[27] = RPMI 5 mM glucose + 10% FBS, 0.0632 µM
[28] = RPMI 5 mM glucose + 10% FBS, 0.19 µM
[29] = RPMI 5 mM glucose + 10% FBS, 0.569 µM
[30] = RPMI 5 mM glucose + 10% FBS, 1.71 µM
[31] = RPMI 5 mM glucose + 10% FBS, 5.12 µM
[32] = RPMI 5 mM glucose + 10% FBS, 15.4 µM
[33] = RPMI 5 mM glucose + 10% FBS, 46.1 µM

Row | Structure (SMILES) | cell viability [1] [%] | cell viability [2] [%] | cell viability [3] [%] | cell viability [4] [%] | cell viability [5] [%] | cell viability [6] [%] | cell viability [7] [%] | cell viability [8] [%] | cell viability [9] [%] | cell viability [10] [%] | cell viability [11] [%] | cell viability [12] [%] | cell viability [13] [%] | cell viability [14] [%] | cell viability [15] [%] | cell viability [16] [%] | cell viability [17] [%] | cell viability [18] [%] | cell viability [19] [%] | cell viability [20] [%] | cell viability [21] [%] | cell viability [22] [%] | cell viability [23] [%] | cell viability [24] [%] | cell viability [25] [%] | cell viability [26] [%] | cell viability [27] [%] | cell viability [28] [%] | cell viability [29] [%] | cell viability [30] [%] | cell viability [31] [%] | cell viability [32] [%] | cell viability [33] [%]
1 | Cn1cc(-c2ccncc2)c(-c2ccc(OCc3ccc4ccccc4n3)cc2)n1 | 102 | 123 | 133 | 125 | 114 | 117 | 131 | 123 | 109 | 111 | 98.4 | – | – | – | – | – | – | – | – | – | – | – | – | – | – | – | – | – | – | – | – | – | –
2 | CN(C)[C@H]\1[C@@H]2[C@@H](O)[C@@H]\3C(=C)C4=C(C(=CC=C4)O)C(=O)C3=C(\O)[C@@]2(O)C(=O)\C(=C1O)C(N)=O | 127 | 119 | 121 | 121 | 116 | 112 | 121 | 125 | 111 | 124 | 123 | 130 | 120 | 122 | 128 | 135 | 110 | 111 | 127 | 103 | 107 | 121 | – | – | – | – | – | – | – | – | – | – | –
3 | COc1cc2nc(-c3ccc(N4CCN(C)CC4)cc3)nc(NCCN3CCOCC3)c2cc1OC | 114 | 111 | 103 | 107 | 111 | 95 | 63.7 | 28.3 | 11.1 | 7.69 | 1.71 | 115 | 112 | 110 | 125 | 113 | 97.9 | 48.8 | 35 | 22.6 | 18.8 | 1.8 | 102 | 103 | 99 | 94.5 | 98.7 | 100 | 84 | 47 | 18.1 | 9.07 | 2.08
4 | CN(C)CCC=C1C2=C(C=CC=C2)\C=C/C3=C1C=CC=C3 | 98.7 | 99 | 107 | 104 | 114 | 103 | 107 | 95.3 | 99.3 | 66.6 | 21.2 | – | – | – | – | – | – | – | – | – | – | – | 108 | 100 | 95.5 | 98 | 95.9 | 90.3 | 98.7 | 106 | 94 | 77 | 16.4
5 | CNC(=O)c1c(F)cccc1Nc1nc(Nc2cc3c(cc2OC)CCN3C(=O)CN(C)C)nc2[nH]ccc12 | 107 | 111 | 105 | 126 | 117 | 112 | 108 | 103 | 99.2 | 102 | 23.6 | 89.3 | 118 | 99.9 | 122 | 111 | 88.7 | 87.2 | 76.5 | 58.8 | 62 | 6.14 | 110 | 118 | 128 | 106 | 112 | 117 | 115 | 113 | 116 | 117 | 27.7
6 | O=C(NC1CC1)c1cccc(-c2ccc3c(NC(=O)C4CC4)n[nH]c3c2)c1 | 118 | 124 | 123 | 130 | 124 | 129 | 110 | 122 | 132 | 99.7 | 35.3 | 101 | 109 | 117 | 121 | 119 | 109 | 119 | 118 | 122 | 87.6 | 38.3 | 129 | 113 | 122 | 139 | 125 | 115 | 111 | 112 | 123 | 98.7 | 20.2
7 | C=C1C[C@@]2(O)O[C@@]3(C[C@H]2C(C)C)[C@@H](C)CC[C@@H]13 | 114 | 125 | 118 | 109 | 117 | 122 | 98.1 | 102 | 121 | 102 | 124 | 120 | 94.8 | 122 | 133 | 121 | 134 | 114 | 117 | 134 | 132 | 111 | 108 | 114 | 122 | 126 | 136 | 119 | 121 | 122 | 130 | 119 | 135
8 | CCOc1ccccc1OCCNC(C)Cc1ccc(OC)c([S+](N)(=O)[O-])c1 (stereo not drawn) | 90.1 | 108 | 110 | 112 | 111 | 108 | 109 | 101 | 117 | 104 | 105 | 103 | 105 | 96.8 | 121 | 129 | 119 | 120 | 114 | 109 | 115 | 102 | 98.8 | 110 | 115 | 117 | 105 | 112 | 102 | 101 | 109 | 102 | 101
9 | NC/1=N/C(=O)N(/C=C1)[C@H]2CC[C@@H](CO)O2 | 70.8 | 94.6 | 92.2 | 98.5 | 101 | 105 | 108 | 95.9 | 74 | 88.7 | 6.05 | 76 | 106 | 107 | 103 | 97.5 | 101 | 107 | 92.1 | 82.8 | 82.2 | 14.2 | 75.6 | 91.3 | 85.7 | 96.4 | 87.1 | 92.3 | 85.7 | 89.2 | 91 | 93.1 | 8.01
